Laboratory results from patent US10485803B2, “Pyrimidine compounds as JAK kinase inhibitors” (THERAVANCE BIOPHARMA R&D IP, LLC, priority 2016, dated 2019).
Entries after “also recorded” stand apart in the source; their conditions may differ. Like-named read-outs stand apart in the source and are kept apart here.

Key:
[1] = test system: IL-13 induced STAT6 phosphorylation in HT-29 human colorectal adenocarcinoma cells; assay: Cellular JAK potency assay: inhibition of IL-13; format: cell-based; settings: HT-29 cells
Procedure: The potency of test compounds for inhibition of the JAK-dependent cytokine interleuken-13 (IL-13) was assessed by measuring IL-13 (IL-13, R&D Systems) induced STAT6 phosphorylation in HT-29 human colorectal adenocarcinoma cells (ATCC).
The anti-STAT6 antibody (Cell Signaling Technologies) was conjugated to AlphaScreen acceptor beads (Perkin Elmer), while the anti-pSTAT6 (pTyr641) antibody (Cell Signaling Technologies) was biotinylated using EZ-Link Sulfo-NHS-Biotin (Thermo Scientific).
HT-29 cells were grown at 37° C. in a 5% CO2 humidified incubator in McCoy's 5a Modified medium (ATCC) supplemented with 10% FBS (Hyclone), 100 U/mL penicillin, 100 μg/mL streptomycin (Life Technologies), and 2 mM GlutaMAX (Life Technologies). On day 1 of the assay, cells were seeded at a 7,500 cells/well density in white poly-D-lysine-coated 384-well plates (Corning) with 25 μL medium, and were allowed to adhere overnight in the incubator. On day 2 of the assay, the medium was removed and replaced with 12 μL of assay buffer (Hank's Balanced Salt Solution/HBSS, 25 mM HEPES, and 1 mg/ml bovine serum albumin/BSA) containing dose-responses of test compounds. Compounds were serially diluted in DMSO and then diluted another 1000-fold in media to bring the final DMSO concentration to 0.1%. Cells were incubated with test compounds at 37° C. for 1 h, and followed by the addition of 12 μl of pre-warmed IL-13 (12 ng/ml in assay buffer) for stimulation. After incubating at 37° C. for 30 min, the assay buffer (containing compound and IL-13) was removed, and 10 μl of cell lysis buffer (25 mM HEPES, 0.1% SDS, 1% NP-40, 5 mM MgCl2, 1.3 mM EDTA, 1 mM EGTA, and supplement with Complete Ultra mini protease inhibitors and PhosSTOP from Roche Diagnostics). The plates were shaken at ambient temperature for 30 min before the addition of detection reagents. A mixture of biotin-anti-pSTAT6 and anti-STAT6 conjugated acceptor beads was added first and incubated at ambient temperature for 2 h, followed by the addition of streptavidin conjugated donor beads (Perkin Elmer). After a minimum of 2 h incubation, the assay plates were read on the EnVision plate reader.
Results were expressed as the negative logarithm of the IC50 value, pIC50.

[2] = Determination of absorption in cannulated rats; format: in vivo, Sprague Dawley rats; settings: rat, oral vs IV dose
Procedure: Oral bioavailability (F %), fraction absorbed (Fa%) and fraction escaping hepatic clearance (Fh%) were determined in Sprague Dawley rats from the following two studies:
(1) Pharmacokinetics in rats following an IV dose of test compound: Following IV dosing, plasma samples were typically collected from 0-6 hr. Drug levels were determined using an LC-MS-MS method. The resulting drug levels were used to compute the IV pharmacokinetic parameters: AUC IV and Dose IV.
(2) Rats that have been cannulated in their portal vein (PV) and also in their jugular vein (JV) were dosed orally with test compound. Following oral dosing, plasma samples were typically collected from 0-6 hr from both the portal vein and the jugular vein. Drug levels were determined using an LC-MS-MS method. The resulting drug levels were used to compute the following pharmacokinetic parameters: AUC PO PV, AUC PO JV, and Dose PO.
Using data derived from the above studies, the oral bioavailability F %, and the quantities Fa% and Fh% were calculated from the following formulas: F%=(AUC PO JV/AUC IV)*(Dose IV/Dose PO)*100 Fa%=(AUC PO PV/AUC IV)*(Dose IV/Dose PO)*100 Fh%=AUC PO JV/AUC PO PV • where: • AUC PO JV=Area under the curve following oral dose and plasma collected from the jugular vein • AUC PO PV=Area under the curve following oral dose and plasma collected from the portal vein • AUC IV=Area under the curve following an intravenous dose • Dose IV=Intravenous Dose in mg/kg • Dose PO=Oral Dose in mg/kg

[3] = test system: oxazolone-induced colitis; assay: Mouse model of oxazolone-induced colitis; format: in vivo, BALB/C mice; settings: mice, PO, 1, 3, and/or 10 mg/kg BID
Procedure: Oxazolone-induced colitis is an experimental model that has a histological resemblance to human ulcerative colitis (Heller et al. […], 2002, 17, 629-638). Adult BALB/C mice from Harlan were used in the assay. On day 1, animals were lightly anesthetized with isoflurane and the hairs between the shoulder were carefully removed before oxazolone (4%, 150 μL, 4:1 acetone: olive oil formulation) or vehicle solution was slowly applied for skin sensitization. Seven days after skin sensitization, the mice were fasted overnight, anesthetized with isoflurane inhalation, and a 1 mL syringe equipped with a 3.5-F catheter, filled with oxazolone solution, was inserted carefully about 4 cm into the colon of the mouse. Following insertion, 50 μL of the oxazolone solution (1%, 1:1 ethanol:water formulation) was injected very slowly (over 30 sec using an injection pump) into the colon. The catheter was removed and the mice were held vertically (head down) for 2 min to ensure that the entire oxazolone solution remained inside the colon. Drug treatment (PO, BID or TID) or vehicle was initiated a day prior to the oxazolone intrarectal (IR) challenge. Two-day post oxazolone intrarectal challenge, the Disease Activity Index (DAI) was assessed by treatment-blinded experimenters for each mouse according to the criteria score: stool consistency score (0, normal; 2, loose; 4, diarrhea), gross bleeding score (0, absence; 2, blood tinged; 4, presence), and weight loss score (0, none; 1, 1%-5%; 2, 5%-10%; 3, 10%-20%; 4, more than 20%); DAI=average of (stool consistency score+gross bleeding score+weight loss score).

[4] = molecular target: JAK1 (Homo sapiens (Human), UniProt P23458); assay: LanthaScreen JAK biochemical assay, JAK1
Procedure: (§1) A panel of four LanthaScreen JAK biochemical assays (JAK1, 2, 3 and Tyk2) were carried in a common kinase reaction buffer (50 mM HEPES, pH 7.5, 0.01% Brij-35, 10 mM MgCl2, and 1 mM EGTA). Recombinant GST-tagged JAK enzymes and a GFP-tagged STAT1 peptide substrate were obtained from Life Technologies.
(§2) Serially diluted compounds were pre-incubated with each of the four JAK enzymes and the substrate in white 384-well microplates (Corning) at ambient temperature for 1 h. ATP was subsequently added to initiate the kinase reactions in 10 μl total volume, with 1% DMSO. […] The plates were allowed to incubate at ambient temperature for 1 h before being read on the EnVision reader (Perkin Elmer).
(§3) For dose-response analysis, percent inhibition data were plotted vs. compound concentrations, and IC50 values were determined from a 4-parameter robust fit model with the Prism software (GraphPad Software). Results were expressed as pIC50 (negative logarithm of IC50) and subsequently converted to pKi (negative logarithm of dissociation constant, Ki) using the Cheng-Prusoff equation.

[5] = molecular target: JAK2 (Homo sapiens (Human), UniProt O60674); assay: LanthaScreen JAK biochemical assay, JAK2
Procedure: as §1, §2, §3

[6] = molecular target: JAK3 (Homo sapiens (Human), UniProt P52333); assay: LanthaScreen JAK biochemical assay, JAK3
Procedure: as §1, §2, §3

[7] = molecular target: Tyk2 (Homo sapiens (Human), UniProt P29597); assay: LanthaScreen JAK biochemical assay, Tyk2
Procedure: as §1, §2, §3

[8] = Colon pharmacokinetics in rats; format: in vivo, Sprague Dawley rats; settings: rat, upon oral administration, dose not stated
[9] = test system: mouse splenic NK, B and T cells; settings: in vivo; for treatment effect on B and T cell populations: po
Procedure: Depletion of mouse splenic cells is an experimental model of immunosuppression (Kudlacz et al., Am. J. of Transplantation, 2004, 4, 51-57). The compound of Example 2 was assessed in the mouse splenic cell model following the same treatment paradigm as that used in the oxazolone-induced colitis model (Assay 8).
The compound (1, 10 and 100 mg/kg, BID) and tofacitinib (30 and 60 mg/kg, BID) as a positive control were dosed orally for three days to naïve mice. Spleens were harvested 1 h post last dose and crushed immediately for cell subtype staining. Prior to fixation, fluorophore-labelled antibodies for CD19 (FITC; B cells), CD3e (PE; pan T cells) and DX5 (APC; NK cells) were incubated with splenocyte samples from each animal to allow for simultaneous, multiple subtype % analysis on the flow cytometer. The number of total spleen cells for each animal was measured by Scepter™ 2.0 Handheld Automated Cell Counter.
The absolute number of lymphocyte subtype population (e.g., splenic B, T and NK cells) was calculated from the percentage of each subtype times total spleen cells for each animal. A one way ANOVA, with Dunnett's post hoc test, was used to compare the splenic lymphocytes number of the vehicle and test compound groups. The a level was set at p<0.05. Data were presented as the mean±SEM for each group.

[10] = in vivo
From the text: The objective of this assay was to determine the epidermal, dermal and plasma pharmacokinetics of a test compound following a 24 hr exposure to intact mouse or mini-pig skin.
Twenty-four hours prior to dosing the hair was shaved from the back of 25 g male Balb/c mice exposing an area at of least 6 cm^2 (about 10% of body surface) and, in a separate experiment, of 10 kg Gottingen mini-pigs exposing an area of at least 450 cm^2 (about 10% of body surface). […] The skin was covered with an adhesive cover to prevent loss of compound to the cage or bedding.
Following 24 h exposure, the backs were gently washed with soap and water to remove non-absorbed drug and patted dry. Immediately following this washing, blood was drawn by cardiac puncture from the mice and via venipuncture from the mini-pigs. The outer skin (stratum corneum) was then removed by adhesive tape stripping. Upon exposure of the epidermis a 0.5 cm punch biopsy was taken. The epidermis and dermis were quickly separated, weighed and snap frozen.

[11] = test system: TPA-induced increase in ear thickness; assay: Topical TPA-induced irritant contact dermatitis model in mice; format: in vivo, Balb/c mice; settings: 6 hours after TPA
Procedure: The objective of this assay is to assess the anti-inflammatory effect in a model of acute dermatitis of test compounds being studied for cutaneous inflammatory conditions such as atopic dermatitis (Dong et al., J Pharmacol Exp Ther, 2013, 344, 436-446).
Topical dermal application of phorbol ester 12-O-tetradecanoylphorbol-13-acetate (TPA) in mice causes an inflammatory response that is characterized by edema and neutrophil influx at the early phase (2-24 h) and by epidermal cell proliferation at the later phase (24-48 h) (Griffiths et al., Agents and Actions, 1988, 25, 344-351). Female Balb/c mice were topically administered with either vehicle (1:7 DMSO:acetone) or 20 μL of a solution of TPA (2.5 μg) in vehicle on each ear. At 30 min before and 15 min after TPA administration, either vehicle or the compound of Example 2 at doses of 30, 100, 300, 1000, and 3000 μg in vehicle was applied topically to each ear. The degree of inflammation was assessed as the change in ear thickness at 6 hours after TPA application.

JAK2, sequence (O60674 whole entry): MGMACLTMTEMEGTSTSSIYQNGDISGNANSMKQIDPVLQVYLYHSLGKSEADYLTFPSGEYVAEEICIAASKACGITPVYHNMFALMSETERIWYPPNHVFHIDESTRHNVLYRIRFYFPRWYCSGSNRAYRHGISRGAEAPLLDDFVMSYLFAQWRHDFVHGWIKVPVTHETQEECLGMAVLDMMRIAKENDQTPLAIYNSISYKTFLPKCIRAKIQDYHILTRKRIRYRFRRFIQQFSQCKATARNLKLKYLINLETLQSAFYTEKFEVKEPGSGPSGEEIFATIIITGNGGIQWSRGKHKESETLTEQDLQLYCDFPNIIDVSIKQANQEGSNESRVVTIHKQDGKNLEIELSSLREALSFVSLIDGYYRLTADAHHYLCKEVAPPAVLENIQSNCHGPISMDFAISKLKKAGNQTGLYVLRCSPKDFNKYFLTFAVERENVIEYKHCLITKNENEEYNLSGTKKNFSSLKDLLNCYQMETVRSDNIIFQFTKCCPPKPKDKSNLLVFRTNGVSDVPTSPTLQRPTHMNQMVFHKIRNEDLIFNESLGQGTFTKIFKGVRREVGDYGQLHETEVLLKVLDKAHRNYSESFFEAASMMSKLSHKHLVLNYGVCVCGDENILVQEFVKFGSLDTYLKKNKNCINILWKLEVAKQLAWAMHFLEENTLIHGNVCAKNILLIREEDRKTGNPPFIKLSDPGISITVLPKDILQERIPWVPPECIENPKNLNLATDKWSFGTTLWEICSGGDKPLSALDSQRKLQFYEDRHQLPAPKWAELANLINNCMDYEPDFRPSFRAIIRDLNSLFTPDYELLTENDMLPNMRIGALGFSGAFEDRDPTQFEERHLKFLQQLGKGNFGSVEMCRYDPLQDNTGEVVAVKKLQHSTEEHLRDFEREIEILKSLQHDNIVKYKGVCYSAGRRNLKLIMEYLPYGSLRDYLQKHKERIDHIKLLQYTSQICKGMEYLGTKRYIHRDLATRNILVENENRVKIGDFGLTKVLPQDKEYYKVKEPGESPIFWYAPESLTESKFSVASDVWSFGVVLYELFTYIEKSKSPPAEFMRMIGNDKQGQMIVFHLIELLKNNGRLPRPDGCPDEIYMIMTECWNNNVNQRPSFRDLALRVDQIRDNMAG
JAK3, sequence (P52333 whole entry): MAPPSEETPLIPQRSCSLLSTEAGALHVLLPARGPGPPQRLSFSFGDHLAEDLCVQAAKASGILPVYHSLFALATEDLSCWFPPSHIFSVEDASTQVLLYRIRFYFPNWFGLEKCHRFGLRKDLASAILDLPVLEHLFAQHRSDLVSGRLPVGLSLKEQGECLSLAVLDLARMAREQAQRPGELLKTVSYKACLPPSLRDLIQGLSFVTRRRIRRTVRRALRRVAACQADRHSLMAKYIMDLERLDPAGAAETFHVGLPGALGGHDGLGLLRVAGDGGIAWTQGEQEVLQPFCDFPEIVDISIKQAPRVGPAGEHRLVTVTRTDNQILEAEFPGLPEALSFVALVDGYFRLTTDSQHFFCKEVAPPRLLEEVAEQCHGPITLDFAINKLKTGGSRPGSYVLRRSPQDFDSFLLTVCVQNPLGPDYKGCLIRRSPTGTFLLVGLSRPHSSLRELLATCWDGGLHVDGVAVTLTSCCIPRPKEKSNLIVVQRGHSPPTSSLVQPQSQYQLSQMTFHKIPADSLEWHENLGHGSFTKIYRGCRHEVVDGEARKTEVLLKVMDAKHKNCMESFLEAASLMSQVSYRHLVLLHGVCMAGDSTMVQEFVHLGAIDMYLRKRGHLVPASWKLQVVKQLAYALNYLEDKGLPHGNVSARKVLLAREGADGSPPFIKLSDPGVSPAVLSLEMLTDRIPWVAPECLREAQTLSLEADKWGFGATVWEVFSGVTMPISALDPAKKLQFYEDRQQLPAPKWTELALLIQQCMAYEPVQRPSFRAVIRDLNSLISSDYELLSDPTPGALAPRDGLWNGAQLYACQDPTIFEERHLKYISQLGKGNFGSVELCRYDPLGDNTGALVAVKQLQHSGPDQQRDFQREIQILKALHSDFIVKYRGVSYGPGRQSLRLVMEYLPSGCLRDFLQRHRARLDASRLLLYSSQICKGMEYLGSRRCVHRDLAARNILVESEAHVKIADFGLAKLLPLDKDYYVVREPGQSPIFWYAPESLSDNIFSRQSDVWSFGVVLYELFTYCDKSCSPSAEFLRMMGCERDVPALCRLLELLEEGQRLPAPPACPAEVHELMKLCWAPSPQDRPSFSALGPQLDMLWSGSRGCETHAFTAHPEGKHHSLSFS
JAK1, sequence (P23458 whole entry): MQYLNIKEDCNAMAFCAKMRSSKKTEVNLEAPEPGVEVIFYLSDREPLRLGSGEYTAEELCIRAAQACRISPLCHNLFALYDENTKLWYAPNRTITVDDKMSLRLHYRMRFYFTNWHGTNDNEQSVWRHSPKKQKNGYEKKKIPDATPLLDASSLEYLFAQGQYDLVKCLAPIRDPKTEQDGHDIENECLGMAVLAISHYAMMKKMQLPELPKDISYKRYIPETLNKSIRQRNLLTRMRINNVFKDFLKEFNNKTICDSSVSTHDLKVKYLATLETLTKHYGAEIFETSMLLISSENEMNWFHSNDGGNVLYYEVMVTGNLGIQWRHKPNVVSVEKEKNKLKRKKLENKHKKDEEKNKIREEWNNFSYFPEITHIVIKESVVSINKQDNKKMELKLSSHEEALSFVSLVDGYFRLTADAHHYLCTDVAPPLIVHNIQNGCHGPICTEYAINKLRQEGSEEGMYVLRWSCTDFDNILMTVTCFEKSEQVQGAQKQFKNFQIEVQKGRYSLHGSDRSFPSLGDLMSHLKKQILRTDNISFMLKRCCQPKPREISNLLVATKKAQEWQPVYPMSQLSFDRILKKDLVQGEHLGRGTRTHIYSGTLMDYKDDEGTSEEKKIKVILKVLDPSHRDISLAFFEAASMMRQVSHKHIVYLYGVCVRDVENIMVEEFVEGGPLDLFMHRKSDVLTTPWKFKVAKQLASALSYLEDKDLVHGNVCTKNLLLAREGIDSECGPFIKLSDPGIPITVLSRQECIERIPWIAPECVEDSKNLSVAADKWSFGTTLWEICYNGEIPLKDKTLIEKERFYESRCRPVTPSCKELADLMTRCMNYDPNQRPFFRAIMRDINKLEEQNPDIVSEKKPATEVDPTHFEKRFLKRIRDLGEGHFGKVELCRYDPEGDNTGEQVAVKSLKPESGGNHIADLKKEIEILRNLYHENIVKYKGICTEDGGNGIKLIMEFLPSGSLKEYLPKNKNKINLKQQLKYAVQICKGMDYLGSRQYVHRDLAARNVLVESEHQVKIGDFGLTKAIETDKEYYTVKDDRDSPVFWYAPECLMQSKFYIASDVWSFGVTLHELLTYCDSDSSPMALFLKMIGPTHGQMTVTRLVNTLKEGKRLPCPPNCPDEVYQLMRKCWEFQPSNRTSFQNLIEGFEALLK
Tyk2, sequence (P29597 whole entry): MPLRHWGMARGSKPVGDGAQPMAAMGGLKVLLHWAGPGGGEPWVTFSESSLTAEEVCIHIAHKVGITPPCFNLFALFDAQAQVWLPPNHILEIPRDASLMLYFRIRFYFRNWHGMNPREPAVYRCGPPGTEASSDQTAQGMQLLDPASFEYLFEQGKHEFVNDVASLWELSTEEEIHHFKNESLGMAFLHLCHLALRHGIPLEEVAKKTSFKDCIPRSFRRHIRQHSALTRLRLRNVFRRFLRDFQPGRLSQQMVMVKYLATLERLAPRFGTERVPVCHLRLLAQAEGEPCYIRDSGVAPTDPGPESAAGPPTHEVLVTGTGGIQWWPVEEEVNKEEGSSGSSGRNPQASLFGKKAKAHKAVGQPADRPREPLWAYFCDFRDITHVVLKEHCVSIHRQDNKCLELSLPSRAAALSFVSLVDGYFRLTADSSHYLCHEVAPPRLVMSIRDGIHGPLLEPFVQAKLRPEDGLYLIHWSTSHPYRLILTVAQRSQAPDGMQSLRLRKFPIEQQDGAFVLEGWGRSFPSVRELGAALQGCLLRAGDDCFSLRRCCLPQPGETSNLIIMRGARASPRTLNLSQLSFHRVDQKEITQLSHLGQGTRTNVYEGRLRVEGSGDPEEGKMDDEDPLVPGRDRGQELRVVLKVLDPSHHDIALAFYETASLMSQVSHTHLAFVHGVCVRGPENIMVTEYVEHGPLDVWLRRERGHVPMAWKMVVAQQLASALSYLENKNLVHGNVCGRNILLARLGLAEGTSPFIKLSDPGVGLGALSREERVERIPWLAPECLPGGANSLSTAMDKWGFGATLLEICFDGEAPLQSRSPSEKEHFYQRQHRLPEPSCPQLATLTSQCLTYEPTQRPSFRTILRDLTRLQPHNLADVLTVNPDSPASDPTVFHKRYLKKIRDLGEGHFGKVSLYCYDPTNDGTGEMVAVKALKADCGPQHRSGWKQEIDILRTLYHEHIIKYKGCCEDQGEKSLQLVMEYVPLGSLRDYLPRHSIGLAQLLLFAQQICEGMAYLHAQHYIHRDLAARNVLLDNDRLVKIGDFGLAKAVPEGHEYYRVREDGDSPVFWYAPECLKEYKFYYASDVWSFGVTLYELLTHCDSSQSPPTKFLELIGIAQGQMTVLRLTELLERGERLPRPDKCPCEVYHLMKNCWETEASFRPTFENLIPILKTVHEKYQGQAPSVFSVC

COc1cc(Nc2cc(CO)[nH]n2)nc(N(C)[C@@H]2C[C@H]3CC[C@@H](C2)N3S(=O)(=O)N2CC(C#N)C2)n1 [Example 1, 1-(((1R,3s,5S)-3-((4-((5-(Hydroxymethyl)-1H-pyrazol-3-yl)amino)-6-methoxypyrimidin-2-yl)(methyl)amino)-8-azabicyclo[3.2.1]octan-8-yl)sulfonyl)azetidine-3-carbonitrile]
HT-29 (pIC50) [1]: B (B represents a pIC50 value between 6.7 and 7.5 (IC50 between 200 nM and 32 nM)) | oral bioavailability (F %) ([2]; jugular vein): less than 5% | absorption at the portal vein (Fa%) [2]: less than 25% | decrease in DAI score as compared with vehicle treated animals [3]: did not exhibit a statistically significant decrease | JAK 1 (pKi) [4]: A (A represents a pKi value ≥10 (Ki≤0.1 nM)) | JAK 2 (pKi) [5]: A (A represents a pKi value ≥10 (Ki≤0.1 nM)) | JAK 3 (pKi) [6]: C (C represents a pKi value between 8 and 9 (Ki between 10 nM and 1 nM)) | Tyk 2 (pKi) [7]: B (B represents a pKi value between 9 and 10 (Ki between 1 nM and 0.1 nM))

COc1cc(Nc2cc(CO)[nH]n2)nc(N(C)[C@@H]2C[C@H]3CCC[C@@H](C2)N3S(=O)(=O)N2CC(C#N)C2)n1 [Example 2, 1-(((1R,3s,5S)-3-((4-((5-(Hydroxymethyl)-1H-pyrazol-3-yl)amino)-6-methoxypyrimidin-2-yl)(methyl)amino)-9-azabicyclo[3.3.1]nonan-9-yl)sulfonyl)azetidine-3-carbonitrile]
absorption at the portal vein (Fa%) [2]: less than 25% | ratio of exposure in the colon to exposure in plasma [8]: greater than 250 | decrease in DAI score as compared with vehicle treated animals [3]: demonstrated activity; also recorded: statistically significant decrease | effect of immunosuppression [9]: minimal effect of immunosuppression | treatment effect on B and T cell populations [9]: No treatment effect | duration of sustained dermal levels ([10]; Gottingen, minipig): at least 7 days | duration of sustained dermal levels ([10]; male, Balb/c, mouse): at least 2 days | inhibition of TPA-induced increase in ear thickness ([11]; topical 30-3000 μg per ear): dose- and concentration-dependent effect; also recorded: dose- and concentration-dependent inhibition | maximum statistically significant inhibition of TPA-induced increase in ear thickness ([11]; topical, 1000 μg dose): 41%

COCCS(=O)(=O)N1[C@@H]2CCC[C@H]1C[C@H](N(C)c1nc(Nc3cc(CO)[nH]n3)cc(OC)n1)C2 [Example 4, (3-((6-methoxy-2-(((1R,3s,5S)-9-((2-methoxyethyl)sulfonyl)-9-azabicyclo[3.3.1]nonan-3-yl)(methyl)amino)pyrimidin-4-yl)amino)-1H-pyrazol-5-yl)methanol]
absorption at the portal vein (Fa%) [2]: greater than 40% | decrease in DAI score as compared with vehicle treated animals [3]: statistically significant decrease

C[C@@H]1CCN(C(=O)CC#N)C[C@@H]1N(C)c1ncnc2[nH]ccc12 [tofacitinib, reference compound]
treatment effect on B and T cell populations [9]: No treatment effect
